Results on 22 compounds are retold here after patent US20170044104A1, “NEW PESTICIDAL COMPOUNDS AND USES” (BAYER CROPSCIENCE AG, priority 2013, published 2017).

One assay has as its system Haemonchus contortus. The assay can be described thus: Haemonchus contortus (HAEMCO) larval mortality assay. Particulars: 120 h; for mortality at 20 ppm: application rate 20 ppm, after 5 days, read-out: activity (percentage of larval mortality); for Emax at 0.8 ppm / Emax at 4 ppm / Emax at 20 ppm: comparative test, 5 dat, read-out: % Efficacy. The method, then:
(§1) Solvent: dimethyl sulfoxide
(§2) To produce a suitable preparation of active compound, 10 mg of active compound are dissolved in 0.5 ml solvent, and the concentrate is diluted with “Ringer's solution” to the desired concentration.
Approximately 40 larvae of the red stomach worm (Haemonchus contortus) are transferred into a test tube containing compound solution.
After 5 days percentage of larval mortality are recorded. 100% efficacy means all larvae are killed, 0% efficacy means no larvae are killed.

Another assay relates to Cooperia curticei. The assay can be described thus: Cooperia curticei (COOPCU) larval mortality assay. Particulars: 120 h, application rate 20 ppm, after 5 days, read-out: activity (percentage of larval mortality). The protocol: as §1, §2
Approximately 40 nematode larvae (Cooperia curticei) are transferred into a test tube containing the compound solution.
After 5 days percentage of larval mortality is recorded. 100% efficacy means all larvae are killed; 0% efficacy means no larvae are killed.

Assay [1] deals with Nippostrongylus brasiliensis. The assay can be described thus: Nippostrongylus brasiliensis (NIPOBR) assay, acetylcholine esterase readout. The settings on record: 10 ppm (10 μg/ml), adult worms, read-out: activity (reduction of AChE compared to negative control). The protocol: Adult Nippostrongylus brasiliensis were washed with saline buffer containing 100 U/ml penicillin, 0.1 mg/ml streptomycin and 2.5 μg/ml amphotericin B. Test compounds were dissolved in DMSO and worms were incubated in medium in a final concentration of 10 μg/ml (10 ppm). An aliquot of the medium was used to determine the acetylcholine esterase activity in comparison to a negative control. The principle of measuring acetylcholine esterase as readout for anthelmintic activity was described in Rapson et al (1986) and Rapson et al (1987).

In a further assay the test system is Meloidogyne incognita. Kind of assay: Meloidogyne incognita (MELGIN) gall formation assay. Particulars: 336 h, read-out: nematicidal activity (percentage of gall formation). It counts as in vivo. The method, then:
Solvent: 125.0 parts by weight of acetone
To produce a suitable preparation of active compound, 1 part by weight of active compound is mixed with the stated amount of solvent, and the concentrate is diluted with water to the desired concentration.
Vessels are filled with sand, a solution of the active ingredient, a suspension containing eggs and larvae of the southern root-knot nematode (Meloidogyne incognita) and salad seeds. The salad seeds germinate and the seedlings grow. Galls develop in the roots.
After 14 days the nematicidal activity is determined on the basis of the percentage of gall formation. 100% means no galls were found and 0% means the number of galls found on the roots of the treated plants was equal to that in untreated control plants.

Assay [2] has as its system Dirofilaria immitis microfilariae. The assay can be described thus: microbe, parasite or virus in culture. The settings on record: 72 h, read-out: EC50 (reduction of motility).

In general, mortality refers to the percentage killed. For the compound `O=C(NCCc1ccc(-c2cncc(F)c2)cc1Cl)c1ccccc1C(F)(F)F` [Example 1-37], in the assay on Haemonchus contortus, the mortality at 20 ppm amounted to 100%, the Emax at 0.8 ppm is 100%, the Emax at 4 ppm stood at 100% and the Emax at 20 ppm is 100%. The mortality at 20 ppm in the assay on Cooperia curticei worked out at 100%. Moreover, in assay [1], the inhibition at 10 ppm is at least 60%. Moreover, the pest or weed control at 20 ppm in the assay on Meloidogyne incognita was determined as 90%.
On to `O=C(NCCc1ccc(-c2ccc(F)nc2)cc1Cl)c1ccccc1C(F)(F)F` [Example 1-44], for which, in the assay on Haemonchus contortus, the mortality at 20 ppm is 100%, the Emax at 0.8 ppm worked out at 100%, the Emax at 4 ppm was 100% and the Emax at 20 ppm stood at 100%. Moreover, in the assay with Cooperia curticei, the mortality at 20 ppm turned out to be 100%. In assay [1], the inhibition at 10 ppm was at least 60%. For the same compound, the pest or weed control at 20 ppm in the assay on Meloidogyne incognita is 90%.
Regarding `O=C(NCCc1ccc(-c2cccnc2Cl)cc1Cl)c1ccccc1C(F)(F)F` [Example 1-48], in the assay on Haemonchus contortus, the mortality at 20 ppm is 100%, the Emax at 0.8 ppm is 80%, the Emax at 4 ppm was found to be 100% and the Emax at 20 ppm turned out to be 100%. The mortality at 20 ppm in the assay with Cooperia curticei was 100%. Also, the inhibition at 10 ppm in assay [1] is at least 60%. In addition, the pest or weed control at 20 ppm in the assay with Meloidogyne incognita came out at 90%.
In the case of `O=C(NCC(F)(F)c1ccc(-c2ccc(Cl)nc2)cc1Cl)c1ccccc1C(F)(F)F` [Example 1-68], the mortality at 20 ppm with Haemonchus contortus and in the assay on Cooperia curticei was 100% each time. In addition, the inhibition at 10 ppm in assay [1] is at least 60%. Moreover, the pest or weed control at 20 ppm with Meloidogyne incognita amounted to 90%.
With `O=C(NCC(F)(F)c1ccc(-n2cc(C(F)(F)F)cn2)cc1Cl)c1ccccc1C(F)(F)F` [Example 1-69, N-[2-[2-chloro-4-[4-(trifluoromethyl)pyrazol-1-yl]phenyl]-2,2-difluoro-ethyl]-2-(trifluoromethyl)benzamide], in the assay with Haemonchus contortus, the mortality at 20 ppm worked out at 100%, the Emax at 0.8 ppm was 100%, the Emax at 4 ppm is 100% and the Emax at 20 ppm came to 100%. The mortality at 20 ppm in the assay with Cooperia curticei was 100%. Moreover, in assay [1], the inhibition at 10 ppm was at least 60%. Also, the pest or weed control at 20 ppm in the assay on Meloidogyne incognita was found to be 100%.
Broadly, the EC50 is the concentration needed to bring the measured effect to its halfway point. Turning to `O=C(NCC(F)c1ccc(-c2ccc(C(F)(F)F)nc2)cc1Cl)c1ccccc1C(F)(F)F` (centres unmarked) [Example 1-70], the values for the mortality at 20 ppm in the assay with Haemonchus contortus and with Cooperia curticei were 90% and 100%, respectively. The inhibition at 10 ppm in assay [1] was at least 60%. In addition, the pest or weed control at 20 ppm in the assay with Meloidogyne incognita was 100%. Moreover, the EC50 in assay [2] is below 5 µg/mL.
`O=C(NCC(F)c1ccc(-c2ccc(Cl)nc2)cc1Cl)c1ccccc1C(F)(F)F` (centres unmarked) [Example 1-73, N-{2-[2-chloro-4-(6-chloropyridin-3-yl)phenyl]-2-fluoroethyl}-2-(trifluoromethyl) benzamide]: the mortality at 20 ppm with Haemonchus contortus and in the assay with Cooperia curticei was 100% in each case. Further, the inhibition at 10 ppm in assay [1] is at least 60%. Also, the pest or weed control at 20 ppm with Meloidogyne incognita worked out at 100%. Moreover, in assay [2], the EC50 is below 5 µg/mL.
`O=C(NCC(F)c1ccc(-c2ccc(F)nc2)cc1Cl)c1ccccc1C(F)(F)F` (centres unmarked) [Example 1-74]: in the assay on Haemonchus contortus, the mortality at 20 ppm was 100%, the Emax at 0.8 ppm was 100%, the Emax at 4 ppm is 100% and the Emax at 20 ppm amounted to 100%. Further, in the assay with Cooperia curticei, the mortality at 20 ppm stood at 100%. Further, in assay [1], the inhibition at 10 ppm was at least 60%. In addition, the pest or weed control at 20 ppm with Meloidogyne incognita came out at 90%. In assay [2], the EC50 was below 5 µg/mL.
In the case of `O=C(NCC(F)c1ccc(-c2cncc(Cl)c2)cc1Cl)c1ccccc1C(F)(F)F` (centres unmarked) [Example 1-77], the mortality at 20 ppm in the assay on Haemonchus contortus and in the assay on Cooperia curticei was 100% each time. Also, the inhibition at 10 ppm in assay [1] was at least 60%. Also, in assay [2], the EC50 is below 5 µg/mL.
`O=C(NCC(F)c1ccc(-c2ccnc(F)c2)cc1Cl)c1ccccc1C(F)(F)F` (centres unmarked) [Example 1-78]: the mortality at 20 ppm in the assay with Haemonchus contortus and in the assay with Cooperia curticei was 100% in each case. For the same compound, the inhibition at 10 ppm in assay [1] was at least 60%. Moreover, the EC50 in assay [2] is below 5 µg/mL.
As for `O=C(NCC(F)c1ccc(-c2cncc(Cl)c2)cc1Cl)c1nccnc1C(F)(F)F` (centres unmarked) [Example 1-82], the mortality at 20 ppm in the assay on Haemonchus contortus and with Cooperia curticei was 100% in each case. Besides, in assay [1], the inhibition at 10 ppm is at least 60%. In addition, the pest or weed control at 20 ppm with Meloidogyne incognita was 100%.
Consider `O=C(NCC(F)c1ccc(-c2ccc(F)nc2)cc1Cl)c1nccnc1C(F)(F)F` (centres unmarked) [Example 1-87], for which the mortality at 20 ppm in the assay with Haemonchus contortus and in the assay on Cooperia curticei was 100% each time. The inhibition at 10 ppm in assay [1] was at least 60%. Moreover, the pest or weed control at 20 ppm with Meloidogyne incognita is 100%.
In the case of `O=C(NCC(F)c1ccc(-c2ccc(F)nc2)cc1Cl)c1cccnc1C(F)(F)F` (centres unmarked) [Example 1-88], the mortality at 20 ppm with Haemonchus contortus and in the assay on Cooperia curticei was 100% in each case. The inhibition at 10 ppm in assay [1] is at least 60%. Besides, in the assay on Meloidogyne incognita, the pest or weed control at 20 ppm stood at 100%.
On to `O=C(NCC(F)(F)c1ccc(-n2cc(C(F)(F)F)cn2)cc1Cl)c1cccnc1C(F)(F)F` [Example 1-89], for which the mortality at 20 ppm in the assay with Haemonchus contortus and with Cooperia curticei was 100% in each case. In assay [1], the inhibition at 10 ppm was at least 60%. In addition, the pest or weed control at 20 ppm in the assay with Meloidogyne incognita stood at 100%. Moreover, the concentration giving a half-maximal response (EC50) in assay [2] is below 5 µg/mL.
Regarding `O=C(NCC(F)(F)c1ccc(-c2ccc(F)nc2)cc1Cl)c1ccccc1C(F)(F)F` [Example 1-93, N-[2-[2-chloro-4-(6-fluoro-3-pyridyl)phenyl]-2,2-difluoro-ethyl]-2-(trifluoromethyl)benzamide], in the assay on Haemonchus contortus, the mortality at 20 ppm is 100%, the Emax at 0.8 ppm is 100%, the Emax at 4 ppm came to 100% and the Emax at 20 ppm amounted to 100%. The mortality at 20 ppm in the assay with Cooperia curticei was 100%. In addition, the inhibition at 10 ppm in assay [1] is at least 60%. Also, in the assay with Meloidogyne incognita, the pest or weed control at 20 ppm worked out at 100%. Moreover, the EC50 in assay [2] was below 5 µg/mL.
Consider `O=C(NCC(F)(F)c1ccc(-c2cncc(Cl)c2)cc1Cl)c1ccccc1C(F)(F)F` [Example 1-97], for which the mortality at 20 ppm with Haemonchus contortus and in the assay with Cooperia curticei was 100% each time. The inhibition at 10 ppm in assay [1] was at least 60%.
Regarding `CC(F)(CNC(=O)c1cccnc1C(F)(F)F)c1ccc(-c2cncc(F)c2)cc1Cl` (centres unmarked) [Example 1-98], the mortality at 20 ppm with Haemonchus contortus and in the assay with Cooperia curticei was 100% each time. The inhibition at 10 ppm in assay [1] is at least 60%.
For `CC(F)(CNC(=O)c1ccccc1Cl)c1ccc(-c2cncc(F)c2)cc1Cl` (centres unmarked) [Example 1-99], the mortality at 20 ppm in the assay with Haemonchus contortus and with Cooperia curticei was 100% throughout. Moreover, the inhibition at 10 ppm in assay [1] is at least 60%. Further, the EC50 in assay [2] was below 5 µg/mL.
For the compound `CC(F)(CNC(=O)c1ccccc1Br)c1ccc(-c2cncc(F)c2)cc1Cl` (centres unmarked) [Example 1-100], the mortality at 20 ppm in the assay on Haemonchus contortus and with Cooperia curticei was 100% each time. Moreover, in assay [1], the inhibition at 10 ppm is at least 60%. In addition, the EC50 in assay [2] is below 5 µg/mL.
On to `O=C(NCC(F)(F)c1ccc(-c2ccc(F)nc2)cc1F)c1ccccc1C(F)(F)F` [Example 1-106], for which the mortality at 20 ppm in the assay on Haemonchus contortus and in the assay with Cooperia curticei was 100% throughout. The inhibition at 10 ppm in assay [1] was at least 60%. The pest or weed control at 20 ppm in the assay on Meloidogyne incognita turned out to be 90%.
For `O=C(NCC(F)(F)c1ccc(-c2cncc(Cl)c2)cc1F)c1ccccc1C(F)(F)F` [Example 1-107], the mortality at 20 ppm in the assay with Haemonchus contortus and with Cooperia curticei was 100% throughout. Further, the inhibition at 10 ppm in assay [1] was at least 60%.
Take `O=C(NCC(F)(F)c1ccc(-c2cncc(F)c2)cc1F)c1ccccc1C(F)(F)F` [Example 1-111]: the mortality at 20 ppm in the assay on Haemonchus contortus and in the assay on Cooperia curticei was 100% in each case. Also, the inhibition at 10 ppm in assay [1] is at least 60%.
